The test system of series [1] is MIA PaCa-2. The series is described as follows: Induction of endoplasmic reticulum (ER) stress in human MIA PaCa-2 cells in DMEM medium assessed as change in TRB3 level at 5 uM measured after 6 hrs by Western blot analysis. The series is classed as functional, cell-based. (In western blotting, separated proteins are transferred to a membrane and probed.)
For series [2], the system named is MIA PaCa-2. The series can be described thus: Antitumor activity against human MIA PaCa-2 cells xenografted in BALB/c/Nu/Nu mouse assessed as reduction in final tumor weight at 60 mg/kg, ip administered 5 times a week for 4 weeks in presence of gemcitabine (reference value: […]). The series is classed as functional.
Series [3] has as its system MIA PaCa-2. The series is described as follows: Antimetastatic activity in human MIA PaCa-2 cells in DMEM media assessed as reduction in colony area at 20 uM incubated for 24 hrs by crystal violet staining-based assay. Also noted: scale not given: the % may be the effect or the level left. The series is classed as functional.
For series [4], the system named is MIA PaCa-2. The series can be described thus: Antitumor activity against human MIA PaCa-2 cells xenografted in BALB/c/Nu/Nu mouse assessed as reduction in number of blood vessels in skin at 60 mg/kg, ip administered 5 times a week for 4 weeks in presence of gemcitabine. Type of series: functional, organism-based. (In general: A xenograft is tissue or cells of one species grown in another, often human tumour cells in immunodeficient mice.)

In series [5] the test system is Mus musculus. The series can be described thus: In-vivo modulation of PI3K/AKT/mTOR signalling pathway in human MIA PaCa-2 cells xenografted in BALB/c/Nu/Nu mouse assessed as downregulation of mTOR phosphorylation at 60 mg/kg, ip administered 5 times a week for 4 weeks in presence of gemcitabine by Western blot analysis. The series is classed as functional, organism-based.

The test system of series [6] is MIA PaCa-2. The series is described as follows: Preferential cytotoxicity against human MIA PaCa-2 cells in nutrient-deprived medium assessed as alteration in cell morphology by measuring cell rounding at 0.5 to 1 uM measured after 24 hrs by acridine orange and ethidium bromide dual fluorescent staining based microscopic analysis. The series is classed as functional. The settings on record: dose 0.5-1 µM.

The subject of series [7] is Mus musculus. The series can be described thus: In-vivo modulation of PI3K/AKT/mTOR signalling pathway in human MIA PaCa-2 cells xenografted in BALB/c/Nu/Nu mouse assessed as downregulation of GRP78 level at 60 mg/kg, ip administered 5 times a week for 4 weeks in presence of gemcitabine by Western blot analysis. The series is classed as functional, organism-based.
Series [8] relates to Mus musculus. The series is described as follows: In-vivo modulation of PI3K/AKT/mTOR signalling pathway in human MIA PaCa-2 cells xenografted in BALB/c/Nu/Nu mouse assessed as downregulation of CHOP level at 60 mg/kg, ip administered 5 times a week for 4 weeks in presence of gemcitabine by Western blot analysis. The series is classed as functional, organism-based.
In series [9] the test system is MIA PaCa-2. The series can be described thus: Preferential cytotoxicity against human MIA PaCa-2 cells in DMEM measured after 24 hrs by WST-8 cell counting analysis. Type of series: functional, cell-based. The settings on record: MIA PaCa-2, 24 h. (Tetrazolium dyes change colour on reduction, which living cells bring about.)
Series [10] has as its system MIA PaCa-2. The series is described as follows: Synergistic antitumor activity against human MIA PaCa-2 cells xenografted in BALB/c/Nu/Nu mouse assessed as increase in pleomorphism at 60 mg/kg, ip administered 5 times a week for 4 weeks by H and E staining based analysis. The series is classed as functional, organism-based.
Series [11] has as its system Mus musculus. The series is described as follows: In-vivo modulation of PI3K/AKT/mTOR signalling pathway in human MIA PaCa-2 cells xenografted in BALB/c/Nu/Nu mouse assessed as downregulation of TRB3 level at 60 mg/kg, ip administered 5 times a week for 4 weeks in presence of gemcitabine by Western blot analysis. The series is classed as functional, organism-based.

The subject of series [12] is MIA PaCa-2. The series can be described thus: Preferential cytotoxicity against human MIA PaCa-2 cells in nutrient-deprived medium assessed as alteration in cell morphology by measuring membrane leakage at 0.5 to 1 uM measured after 24 hrs by acridine orange and ethidium bromide dual fluorescent staining based microscopic analysis. Type of series: functional. The settings on record: dose 0.5-1 µM.

The subject of series [13] is MIA PaCa-2. The series is described as follows: Induction of endoplasmic reticulum (ER) stress in human MIA PaCa-2 cells xenografted in BALB/c/Nu/Nu mouse assessed as downregulation of GRP78 expression in presence of gemcitabine by immunohistochemistry analysis. The series is classed as functional, cell-based.
Series [14] relates to PANC-1. The series is described as follows: Preferential cytotoxicity against human PANC-1 cells in nutrient-deprived medium measured after 24 hrs by WST-8 cell counting analysis. The series is classed as functional.
Series [15] can be described thus: Toxicity in BALB/c/Nu/Nu mouse xenografted with human MIA PaCa-2 cells assessed as change in body weight at 60 mg/kg, ip administered 5 times a week for 4 weeks in presence of gemcitabine. Type of series: organism-based. The following applies: in vivo, 672 h.

Activity calls are given as the source filed them. No cut-off for these calls is given here.

In the case of `CC(C)=CCCC1=CC[C@H](C(=O)c2c(O)cccc2O)[C@@H](c2cccc(F)c2F)C1` (relative stereo), the result in [1], in series [4], in series [5], in [6], in series [7] and in series [8] was Active. Further, the result in series [10], in series [11], in series [12] and in series [13] was Active. Further, the Activity is 139 mg in series [2], 98% in series [3] and “Non-Toxic” in series [15]. Also, in series [9], the IC50 came to 60.2 µM. The molecule further had a PC50 in series [14] of 0.23 µM.

A word on the IC50: it is the concentration that gives 50% inhibition.

(Values after ChEMBL document CHEMBL5576134, “Targeting Pancreatic Cancer with Novel Nicolaioidesin C Derivatives: Molecular Mechanism, In Vitro, and In Vivo Evaluations” (J Med Chem, 2024).)
